In US8703953B2, “Aryl ether-base kinase inhibitors” (Bristol-Myers Squibb Company, priority 2012, dated 2014):

Legend:
GST-Xa-hAAK1 = target: T1, GST-Xa-hAAK1 (Homo sapiens, UniProt Q2M2I8); assay: AAK1 Kinase Assay (Caliper LabChip, fluoresceinated peptide substrate); format: biochemical; conditions: ATP 22 μM
T1 construct: made in house
Description: The assays were performed in U-bottom 384-well plates. The final assay volume was 30 μl prepared from 15 μl additions of enzyme and substrates (fluoresceinated peptide (5-FAM)-Aha-[…]-NH2 and ATP) and test compounds in assay buffer (10 mM Tris-HCL pH 7.4, 10 mM MgCl2, 0.01% Tween-20 and 1.0 mM DTT). The reactions were initiated by the combination of bacterially expressed, GST-Xa-hAAK1 with substrates and test compounds. The reactions were incubated at room temperature for 3 hours and terminated by adding 60 μl of 35 mM EDTA buffer to each sample. The reactions were analyzed on the Caliper LabChip 3000 (Caliper, Hopkinton, Mass.) by electrophoretic separation of the fluorescent substrate and phosphorylated product. […] The final concentration of reagents in the assays are ATP, 22 μM; (5-FAM)-Aha-[…]-NH2, 1.5 μM; GST-Xa-hAAK1, 3.5 nM; and DMSO, 1.6%. Dose response curves were generated to determine the concentration required inhibiting 50% of kinase activity (IC50). Compounds were dissolved at 10 mM in dimethylsulfoxide (DMSO) and evaluated at eleven concentrations. IC50 values were derived by non-linear regression analysis.

AAK1 (full length human) = target: T2, AAK1 (full length human) (Homo sapiens, UniProt Q2M2I8); assay: HEK281 Cell-Based Assay (HEK293F cells transfected with AAK1 and AP2M1; phospho-mu2 Western blot); conditions: 3 h
T2 construct: HA; expressed in transfected cells; host or cells: HEK293F
Description: HEK293F cells were cultured in media containing DMEM (Gibco, cat. #11965), 10% FBS (SAFC Biosciences, cat. #12103C), 1× GPS (glutamine, penicillin and streptomycin). On day one, cells were plated on a 10 cm dish so that they are ˜80% confluent at time of transfection. Roughly 12 million cells were in a 10 cm dish at time of transfection. On day two, each dish was transfected with 48 ug DNA and 144 μl Lipofectamine 2000 (Invitrogen, cat. #11668-019). The DNA was comprised of a mixture (per 10 cm dish) containing 3 ug AAK1/HA/pIRES (full length human, NCBI accession no. NP_055726.2), 45 μg Flag/AP2MI/pcDNA (full length human), and 1.5 ml OPTI-MEM. The Lipofectamine 2000 is made up of a mixture (per 10 cm dish) containing 144 μl Lipofectamine 2000 and 1.5 ml OPTI-MEM. Each mixture was transferred to individual 15 ml tubes and incubated at RT for 5 minutes, and then the two mixes were combined and incubated at RT for 20 minutes. Growth media was then aspirated from each 10 cm plate and replaced with 10 ml of DMEM+10% FBS (no GPS). Finally, 3 ml DNA/Lipofectamine mix was added to each 10 cm dish and mix gently followed by incubate of plate overnight at 37° C. and 5% CO2.
On day three, compounds were diluted in 100% DMSO at 1000× final concentration, followed by 3-fold serial dilutions for a total of 5 concentrations tested. Four compounds were tested per 10 cm dish. One ul of each compound dilution was then pipetted into a deep-well, 96-well plate, followed by addition of 500 μl DMEM+0.5% FBS into each well for a 2× final concentration of each compound. Cells were resuspended in a 10 cm dish by simple pipetting (HEK293 cells come off the plate that easy at this point) and then transferred to a 50 ml conical tube and pelleted by centrifugation at 1000 rpm for 5 min. Cell pellets were then resuspended in 2.75 ml DMEM+0.5% FBS per 10 cm dish and 100 μl of cell suspension transferred into each well of 96-well TC plate. Finally, 100 μl of 2× compound diluted in DMEM+0.5% FBS was then added into wells containing cell suspension for a 1× final concentration. Plates were then incubated at 37° C. and 5% CO2 for 3 hours followed by transferring of cell suspensions from each well into 12-tube PCR strips. The PCR strips were spun in a tip rack at 1000 rpm for 5 minutes to pellet cells and media was then removed by pipetting without disturbing the cell pellet.
To prepare for Western Blot analysis, cell pellets were resuspend in 40 ul 1× LDS-PAGE sample buffer (Invitrogen, cat. #NP0008)+2× Halt phophatase and protease inhibitor cocktail (Thermo Scientific, cat. #1861284), followed by sonicating each with microtip sonicator set at 5 for 8-10 seconds. Five ul of 10× NuPage Sample Reducing Agent (with […]) was to each sample followed by heat denaturing at 70C for 10 min on PCR machine. A total of 10 μl per sample was loaded into each lane of a 4-20% Tris-Glycine Criterion 26-well gel (Biorad, cat. #345-0034) for the phospho-mu2 blot and 10 μl per lane in a 4-12% Bis-Tris (+MES buffer) NuPAGE 26-well gel (Invitrogen, cat. #WG1403BX10) for the mu2 blot. For controls, 2 ng of phospho-mu2 or 20 ng mu2/Flag proteins were loaded in the last well of each gel. After SDS-PAGE, samples on each gel were transferred to PVDF membrane using an iBlot and membranes were blocked for one hour in TBST+5% milk, followed by wash 3× for 5-10 min with TBST. Criterion gels were probed with rabbit anti-phospho-mu2 (1:5000; a rabbit polyclonal antibody produced by New England Peptide and affinity purified at Lexicon) in TBST+5% BSA, whereas, NuPAGE gels were probed with mouse anti-Flag (1:500; Sigma, cat. #F1804) in TBST+5% milk, and these primary antibodies were incubated overnight at 4° C. on a rocker. […]

T2 sequence (Q2M2I8 whole entry): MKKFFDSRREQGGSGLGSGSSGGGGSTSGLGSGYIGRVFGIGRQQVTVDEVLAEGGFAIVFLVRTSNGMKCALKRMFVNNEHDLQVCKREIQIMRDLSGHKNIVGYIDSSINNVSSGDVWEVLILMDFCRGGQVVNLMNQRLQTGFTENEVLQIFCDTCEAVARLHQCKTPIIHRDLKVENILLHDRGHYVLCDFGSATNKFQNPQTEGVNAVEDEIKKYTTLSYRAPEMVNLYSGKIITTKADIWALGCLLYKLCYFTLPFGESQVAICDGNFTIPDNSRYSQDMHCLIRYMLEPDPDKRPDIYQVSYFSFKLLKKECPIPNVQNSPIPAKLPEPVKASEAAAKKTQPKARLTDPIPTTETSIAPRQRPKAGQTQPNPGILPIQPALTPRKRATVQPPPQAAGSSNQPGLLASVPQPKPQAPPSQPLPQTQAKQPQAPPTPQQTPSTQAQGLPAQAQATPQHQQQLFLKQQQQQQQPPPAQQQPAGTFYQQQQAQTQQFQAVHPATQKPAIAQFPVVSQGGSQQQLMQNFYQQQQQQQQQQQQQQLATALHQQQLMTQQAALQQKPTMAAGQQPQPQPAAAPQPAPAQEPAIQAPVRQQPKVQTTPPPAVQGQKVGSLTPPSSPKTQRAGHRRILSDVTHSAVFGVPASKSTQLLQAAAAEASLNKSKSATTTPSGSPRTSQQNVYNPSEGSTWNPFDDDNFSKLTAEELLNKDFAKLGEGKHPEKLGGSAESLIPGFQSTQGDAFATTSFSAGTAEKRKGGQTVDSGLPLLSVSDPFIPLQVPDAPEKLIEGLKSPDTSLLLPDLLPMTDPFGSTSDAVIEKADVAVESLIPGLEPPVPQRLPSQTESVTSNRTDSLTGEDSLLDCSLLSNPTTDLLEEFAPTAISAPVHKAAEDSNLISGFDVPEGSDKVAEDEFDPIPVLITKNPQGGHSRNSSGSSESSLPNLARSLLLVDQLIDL
T1 sequence (Q2M2I8 whole entry): as above

IC50 (GST-Xa-hAAK1; listed as IC50 ranges) | IC50 (AAK1 (full length human); listed as IC50 ranges) | IC50 (GST-Xa-hAAK1; numeric values) | IC50 (AAK1 (full length human); numeric values) | SMILES
10 to 100 nM | 1 to 10 nM |  |  | CC(=O)Nc1cc2c(cn1)COc1cc(OCC(N)CCC(F)(F)F)ccc1-2 (racemic) [Example 36, N-(8-((2-amino-5,5,5-trifluoropentyl)oxy)-5H-chromeno[3,4-c]pyridin-2-yl)acetamide]
1 to 10 nM | 10 to 100 nM |  |  | CC(=O)Nc1cc2c(cn1)COc1cc(OCC(C)(N)CC(C)C)ccc1-2 (racemic) [Example 44, N-(8-(2-amino-2,4-dimethylpentyloxy)-5H-chromeno[3,4-c]pyridin-2-yl)acetamide]
 |  | 27 nM | 25 nM | CC(C)C[C@H](N)COc1ccc2c(c1)OC(C)c1cnccc1-2 (single isomer, unassigned) [Example 6a]
 |  | 9.1 nM | 4.3 nM | CC(C)C[C@H](N)COc1ccc2c(c1)OC(C)c1cnccc1-2 (single isomer, unassigned) [Example 6b]
 |  | 81 nM | > 300 nM | CC(C)C[C@@H](N)COc1ccc2c(c1)OC(C)c1cnccc1-2 (single isomer, unassigned) [Example 7a]
10 to 100 nM | 10 to 100 nM |  |  | CC(C)C[C@H](N)COc1ccc2c(c1)OC(C1CC1)c1cnccc1-2 (single isomer, unassigned) [Example 8b]
100 to 1000 nM |  |  | > 300 nM | CC(C)C[C@@H](N)COc1ccc2c(c1)OC(C1CC1)c1cnccc1-2 (single isomer, unassigned) [Example 9a]
10 to 100 nM | 10 to 100 nM |  |  | CCC1Oc2cc(OC[C@@H](N)CC(C)C)ccc2-c2ccncc21 (single isomer, unassigned) [Example 10a]
 |  | 22 nM | 38 nM | CC(C)C[C@H](N)COc1ccc2c(c1)oc(=O)c1cnccc12 [Example 11, (S)-8-(2-amino-4-methylpentyloxy)-5H-chromeno[3,4-c]pyridin-5-one]
10 to 100 nM | 10 to 100 nM |  |  | CC(=O)Nc1nccc2c1COc1cc(OC[C@@H](N)CC(C)C)ccc1-2 [Example 12, (S)-N-(8-(2-amino-4-methylpentyloxy)-5H-chromeno[3,4-c]pyridin-4-yl)acetamide]
1 to 10 nM | 1 to 10 nM |  |  | CC(C)C[C@H](N)COc1ccc2c(c1)OCc1c-2ccnc1N [Example 13, (S)-8-((2-amino-4-methylpentyl)oxy)-5H-chromeno[3,4-c]pyridin-4-amine]
1 to 10 nM | 1 to 10 nM |  |  | CC(C)C[C@H](N)COc1cc2c(cc1Br)-c1ccncc1CO2 [Example 14, (S)-1-(9-bromo-5H-chromeno[3,4-c]pyridin-8-yloxy)-4-methylpentan-2-amine]
1 to 10 nM | 1 to 10 nM |  |  | CC(C)C[C@H](N)COc1ccc2c(c1)OC(C)c1c-2ccnc1N (stereo partly drawn) [Example 15, 8-(((S)-2-amino-4-methylpentyl)oxy)-5-methyl-5H-chromeno[3,4-c]pyridin-4-amine]
1 to 10 nM | 1 to 10 nM |  |  | CC(C)C[C@H](N)COc1ccc2c(c1)OCc1cncc(F)c1-2 [Example 16, (S)-1-((1-fluoro-5H-chromeno[3,4-c]pyridin-8-yl)oxy)-4-methylpentan-2-amine]
1 to 10 nM | 10 to 100 nM |  |  | CC(=O)Nc1cc2c(cn1)COc1cc(OC[C@@H](N)CC(C)C)ccc1-2 [Example 18, (S)-N-(8-(2-amino-4-methylpentyloxy)-5H-chromeno[3,4-c]pyridin-2-yl)acetamide]
 |  | 66 nM | > 100 nM | CC(=O)Nc1cc2c(cn1)COc1cc(OC[C@@H](N)CC(C)C)c(Cl)cc1-2 [Example 32, (S)-N-(8-((2-amino-4-methylpentyl)oxy)-9-chloro-5H-chromeno[3,4-c]pyridin-2-yl)acetamide]
10 to 100 nM | 10 to 100 nM |  |  | CC(C)C[C@H](N)COc1ccc2c(c1)OCc1cnc(N)cc1-2 [Example 33, (S)-8-(2-amino-4-methylpentyloxy)-5H-chromeno[3,4-c]pyridin-2-amine]
< 1 nM | < 1 nM |  |  | CC(=O)Nc1cc2c(cn1)COc1c-2ccc(OC[C@@H](N)CC(C)C)c1C [Example 35, (S)-N-(8-((2-amino-4-methylpentyl)oxy)-7-methyl-5H-chromeno[3,4-c]pyridin-2-yl)acetamide]
10 to 100 nM | 1 to 10 nM |  |  | COc1c(OC[C@@H](N)CC(C)C)ccc2c1OCc1cnc(NC(C)=O)cc1-2 [Example 37, (S)-N-(8-((2-amino-4-methylpentyl)oxy)-7-methoxy-5H-chromeno[3,4-c]pyridin-2-yl)acetamide]
< 1 nM | 1 to 10 nM |  |  | CC(=O)Nc1cc2c(cn1)COc1c-2ccc(OC[C@@H](N)CC(C)C)c1C(F)F [Example 38, (S)-N-(8-(2-amino-4-methylpentyloxy)-7-(difluoromethyl)-5H-chromeno[3,4-c]pyridin-2-yl)acetamide]
 |  | 0.3 nM | 2.1 nM | CC(=O)Nc1cc2c(cn1)COc1c-2ccc(OC[C@@H](N)CC(C)C)c1F [Example 41, (S)-N-(8-((2-amino-4-methylpentyl)oxy)-7-fluoro-5H-chromeno[3,4-c]pyridin-2-yl)acetamide]
 |  | 0.5 nM | 2.1 nM | CC(C)C[C@H](N)COc1ccc2c(c1)OCc1cnc(NC(=O)C3CC3)cc1-2 [Example 42, (S)-N-(8-(2-amino-4-methylpentyloxy)-5H-chromeno[3,4-c]pyridin-2-yl)cyclopropanecarboxamide]
1 to 10 nM | 1 to 10 nM |  |  | COC(=O)Nc1cc2c(cn1)COc1cc(OC[C@@H](N)CC(C)C)ccc1-2 [Example 43, (S)-methyl 8-(2-amino-4-methylpentyloxy)-5H-chromeno[3,4-c]pyridin-2-ylcarbamate]

SMILES | IC50 (GST-Xa-hAAK1; listed as IC50 ranges) | IC50 (AAK1 (full length human); listed as IC50 ranges) | IC50 (GST-Xa-hAAK1; numeric values) | IC50 (AAK1 (full length human); numeric values)
CC(C)C[C@H](N)COc1ccc2c(c1)OCc1cnccc1-2 [Example 5, (S)-1-(5H-chromeno[3,4-c]pyridin-8-yloxy)-4-methylpentan-2-amine] |  |  | 3.3 nM | 8.4 nM
